In patent US20090220528A1, “Stimulation of Toll-Like Receptors on T Cells” (THE TRUSTEES OF THE UNIVERISTY OF PENNSYLVANIA CNETER FOR …, priority 2005, published 2009):

What was measured:
Format in all cases: cell-based, mouse
[1] = system: activated CD4+ T cells; assay: Effect of signaling inhibitors on TLR ligand-mediated survival; conditions: for effect on poly(I:C)- or CpG DNA-enhanced activated CD4+ T cell survival: dose dependent (FIG. 4A)
Method: TLR ligands used in all experiments were dissolved in PBS except for PGN, which was solubilized in PBS with 0.02% ethanol. SB203580, U0126, NEMO-binding domain peptide (NBD), and NBD-C were all dissolved in DMSO and purchased from Calbiochem (La Jolla, Calif.).
Therefore, the next set of experiments were designed to assess whether MAPK p38 or ERK 1/2 activation is necessary for TLR ligand-mediated survival in activated CD4^+ T cells. The ERK1/2 activation inhibitor U0126 or the MAPK p38 inhibitor SB203580 was added to TLR ligand-treated activated CD4^+ T cells and viability was assessed.

[2] = system: activated CD4+ T cells; assay: Survival of activated CD4+ T cells treated with TLR ligands (7-AAD/annexin exclusion)
Method: All CD4^+ T cell activation was conducted in complete culture medium composed of RPMI 1640 (Life Technologies, Grand Island, N.Y.), 1.5 μM 2-ME (Sigma-Aldrich, St. Louis, Mo.), 50 μg/ml gentamicin (Life Technologies), and 10% FCS (Mediatech, Washington, D.C.) at 37° C. in 5% CO2. Purified CD4^+ T cells from either BALB/c, MyD88^−/−, or MyD88^+/+ wild-type control littermates were activated on 24-well plates (Costar, Cambridge, Mass.) coated with 1.0 μg/ml CD3ε monoclonal antibody (2C11; BD Biosciences) and 1.0 μg/ml CD28 monoclonal antibody (37.51; BD Biosciences) for 16 hours. In experiments with DO11.10 mice, 1 μg/ml of pOVA, a peptide derived from chicken albumin amino acid residues […] was added to 2×10^6/ml erythrocyte-depleted splenocyte and lymph node cell pools for 16 hours. Following pOVA-induced activation, CD4^+ T cell APC complexes were disrupted with 5 mM EDTA/PBS for 10 minutes at 25° C., washed twice in PBS, and purified with magnetic beads using the MACS CD4^+ T cell isolation kit as described elsewhere herein. Purity of activated DO11.10 CD4^+ T cells exceeded 96%. As described elsewhere herein, the remainder of the contaminants by FACS analysis were CD8^+ T cells, with APCs at <0.1% by RT-PCR.
Following activation, purified CD4^+ T cells were washed twice in PBS and replated in culture medium at 10^6/ml. Cultures were left untreated or treated with either TLR ligands and/or inhibitors for indicated times and concentrations. Following incubation, CD4^+ T cells were washed twice in PBS/2% FBS and stained with CD4-allophycocyanin monoclonal antibody and 7-aminoactinomycin D (7-AAD; BD PharMingen) or annexin (BD PharMingen) and survival was assessed by exclusion of either of these two stains. For absolute live cell counts 50,000 CD45.1^+ splenocytes labeled with anti-CD45.1-PE monoclonal antibody (A20; BD PharMingen) were also added to stained CD4^+ T cell sample FACS tubes just before FACS analysis. Live CD4^+ T cell counts were calculated by taking the ratio of the number of CD4^+CD45.1^−7-ADD^− events collected to the number CD45.1^+ events collected and multiplying by 50,000. Proliferation was measured by CFSE dye dilution as previously described (Wells et al., 1997 J. Clin. Invest. 100:3173).
TLR ligands directly promote the survival of several cell types including neutrophils, DC, and B cells (Lundqvist et al., 2002, Cancer Immunol. Immunother. 51:139; Sabroe et al., 2003, J. Immunol. 170:5268; Grillot et al., 1996, J. Exp. Med. 183:381; Grillot et al., 1996, J. Exp. Med. 183:381). Since it was observed that activated CD4^+ T cells also express TLRs and signal in response to TLR ligands, the next set of experiments were designed to assess whether TLR ligands could directly enhance survival of these cells. DO11.10 CD4^+ T cells, that encode a transgenic TCR specific for a peptide derived from chicken OVA (pOVA), were activated with pOVA-pulsed APCs for 16 hours ex vivo, purified by magnetic beads to remove all non-CD4^+ T cells, and replated in unsupplemented culture medium in the absence or presence of TLR ligands. Survival was then assessed 72 hours following activation (FIG. 3A). Poly(I:C) or CpG DNA induced increases of activated CD4^+ T cell survival from 38% to 71 and 73%, respectively.

[3] = system: Foxp3+GFP+ and Foxp3-GFP- T cells; assay: Foxp3 expression (GFP reporter) and IL-6 production in Foxp3+ and Foxp3- T cells under stimulation; conditions: stimulation with anti-CD3 and anti-CD28 antibodies and TGF-b, with additions (FIG. 22)
Method: In order to study the effect of stimulation conditions on Foxp3 expression, T cells were from mice having a reporter construct introduced into the FOXP3 locus (Betteli et al., 2006, Nature 441:235-238) by sorting cells based on the GFP-reporter construct. The reporter construct expresses both Fox3p and the fluorescent protein GFP. T cells that are Foxp3^− (i.e. GFP^−) and T cells that are Foxp3^+ (i.e. GFP^+) were isolated (FIG. 21A). Foxp3 expression was then assessed under different stimulation conditions, […]

Compound | effect on poly(I:C)- or CpG DNA-enhanced activated CD4+ T cell survival [1] | Foxp3 expression in Foxp3-GFP- cells (non-regulatory T cells) [3] | also measured
C[S+]([O-])c1ccc(-c2nc(-c3ccncc3)c(-c3ccc(F)cc3)[nH]2)cc1 (stereo not shown) [SB203580] | neither U0126 or SB203580 treatment decreased | – | –
N#CC(=C(/N)Sc1ccccc1N)/C(C#N)=C(\N)Sc1ccccc1N [U0126] | neither U0126 or SB203580 treatment decreased | – | overall survival rates of TLR-treated activated CD4+ T cells ([1]; concentration of 10 μM): small increase
IFN-α | – | – | activated CD4+ T cell survival ([2]; 72 hours following activation, DO11.10 CD4+ T cells activated with pOVA-pulsed APCs, purified, untreated 38% (FIG. 3A)): 67%
IL-6: cytokine added to the stimulation conditions | – | blocked the induction of Foxp3 | –
TGF-b | – | promoted Foxp3 expression | –
poly(C) | – | – | effect on activated CD4+ T cell survival (dose response) ([2]; FIG. 3B, purified activated CD4+ T cells): no significant effect
